Test results as given in PMC8522630 (Cell, 2021).

Legend:
[1] = system: antigen-specific CD8 T cells in KP lung adenocarcinoma; type: in vivo, mouse; details: 5–6 weeks; for CD8 T cell response magnitude, antigen expressed alone: LucA (mALG8) or LucL (mLAMA4); for proportion of TCF1+ progenitor cells, antigens co-expressed / CD8 T cell response magnitude, antigens co-expressed: LucAL; for CD8 T cell response magnitude, antigens co-expressed: compared to the single-antigen setting
[2] = biological target: H-2K^b (Mus musculus, UniProt P01901, A160C/Y105C); experiment: Differential Scanning Fluorimetry of pMHC thermal melting; type: binding; details: DSF, 50 mM HEPES pH 7.5, SYPRO Orange; Tm averaged from 3 experiments; compared to mLAMA4
Sequence of H-2K^b (P01901 22-295 Y105C/A160C limits assumed): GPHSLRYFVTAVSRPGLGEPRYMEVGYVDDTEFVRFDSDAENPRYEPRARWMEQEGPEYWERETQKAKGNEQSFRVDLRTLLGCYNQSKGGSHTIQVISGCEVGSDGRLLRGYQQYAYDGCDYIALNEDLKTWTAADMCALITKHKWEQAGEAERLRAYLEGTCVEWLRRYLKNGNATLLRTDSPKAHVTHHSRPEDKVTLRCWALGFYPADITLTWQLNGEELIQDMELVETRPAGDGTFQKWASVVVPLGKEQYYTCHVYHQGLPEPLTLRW
Sequence of H-2K^b (P61769 21-119 partner): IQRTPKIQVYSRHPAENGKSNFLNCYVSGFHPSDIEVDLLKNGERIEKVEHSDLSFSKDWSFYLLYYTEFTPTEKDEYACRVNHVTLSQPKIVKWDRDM

Sequence | CD8 T cell response magnitude, antigen expressed alone [1] | proportion of TCF1+ progenitor cells, antigens co-expressed [1] | CD8 T cell response magnitude, antigens co-expressed [1] | pMHC complex stability (Koff), relative to mLAMA4 [2]
ITYTWTRL [mALG8] | responses of equivalent magnitude | increased for both responses (Figure S3M), trending towards greater enrichment for the mALG8 response | neither response became dominant in terms of T cell expansion, but both decreased in magnitude compared to the single-antigen setting | similar, but slightly lower affinity and stability
VGFNFRTL [mLAMA4] | responses of equivalent magnitude | increased for both responses | neither response became dominant in terms of T cell expansion, but both decreased in magnitude compared to the single-antigen setting | 
